Experimental findings from ChEMBL document CHEMBL4613261, “Metabolic and Pharmaceutical Aspects of Fluorinated Compounds” (J Med Chem, 2020) are described below.

The assay deals with T1, Lysine decarboxylase (Hafnia alvei) (UniProt P05033).
T1 sequence (whole entry): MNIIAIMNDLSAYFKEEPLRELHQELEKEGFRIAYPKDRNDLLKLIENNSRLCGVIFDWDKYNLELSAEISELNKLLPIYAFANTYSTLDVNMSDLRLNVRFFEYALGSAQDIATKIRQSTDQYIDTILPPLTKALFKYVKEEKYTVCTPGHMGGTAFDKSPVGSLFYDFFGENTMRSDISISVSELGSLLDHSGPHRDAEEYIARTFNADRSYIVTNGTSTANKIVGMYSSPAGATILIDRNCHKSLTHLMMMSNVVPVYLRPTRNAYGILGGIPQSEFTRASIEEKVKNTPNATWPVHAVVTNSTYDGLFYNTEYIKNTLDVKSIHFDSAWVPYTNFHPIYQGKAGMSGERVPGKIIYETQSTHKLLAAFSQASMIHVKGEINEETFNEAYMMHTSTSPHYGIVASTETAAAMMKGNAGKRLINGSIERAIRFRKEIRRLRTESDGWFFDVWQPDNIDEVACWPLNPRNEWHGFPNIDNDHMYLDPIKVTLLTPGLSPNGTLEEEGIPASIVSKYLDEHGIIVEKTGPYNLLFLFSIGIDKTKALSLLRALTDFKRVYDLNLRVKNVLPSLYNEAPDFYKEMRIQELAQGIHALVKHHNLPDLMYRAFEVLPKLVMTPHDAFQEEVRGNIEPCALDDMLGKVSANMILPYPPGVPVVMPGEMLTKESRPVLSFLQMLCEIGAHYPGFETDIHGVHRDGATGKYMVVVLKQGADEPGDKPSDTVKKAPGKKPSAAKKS
Description: Time dependent inhibition of Hafnia alvei lysine decarboxylase assessed as inactivation half life using L-lysine by Kitz-Wilson analysis

On to `C=C(F)[C@](N)(CCCCN)C(=O)O`, for which the T1/2 stood at 2.8 min.
`C=C(F)[C@@](N)(CCCCN)C(=O)O` yielded a T1/2 of 3.6 min.
